The source of these data is patent US6391848B1, “Soybean protein nutraceuticals” (The Regents of the University of California, priority 1999, dated 2002).

Experiment [1] concerns carcinogen-treated cultured cells. The note with it: in vitro or in vivo; cited from earlier work.
Experiment [2] concerns C3H 10T1/2 mouse fibroblast cells. In words: in vitro transformation assay of C3H 10T1/2 cells with carcinogens MCA and DMBA. The experiment is classed as cell-based.
Experiment [3] relates to mammalian cells. In words: internalization of lunasin into the cell. The experiment is classed as cell-based. An excerpt: (§1) The lunasin polypeptide also contains a functional RGD (arg-gly-asp) motif.
Chromatin Modification and Tumor Suppression. […] (DePinho,1998; Brehm et al, 1998; Magnaghi-Jaulin, 1998; Pazin and Kadonaga, 1997; Hassig et al, 1997; Laherty et al, 1997). For instance, the retinoblastoma protein Rb is complexed with E2F (a family of transcription factors controlled by Rb) and HDAC1 (the major mammalian histone deacetylase which modulates chromatin structure) in mammalian cells. Rb represses E2F-regulated promoter by recruiting HDAC1 which deacetylates core histones causing a tighter association between DNA and nucleosomes, thus impairing the binding of transcription factors to recognition elements in DNA. The Rb/HDAC/E2F complex could be the target for transforming viruses leading to the release of suppression and a fully transformed state. […] Consequently, gene expression is more or less permanently repressed.

A further experiment concerns carcinogenesis. In words: inhibition of carcinogenesis in in vitro and animal models. Particulars: comparable dosages and routes of administration; cell and animal studies. The source says:
Exemplary lunasin-del compounds include (again using N→C nomenclature convention) shown to be effective at inhibiting carcinogenesis in in vitro and animal models include:
BBI is an 8 kDa protein that is known to dimerize in solution.

Experiment [4] relates to mammalian cells. Kind of experiment: effect on mitosis and kinetochore assembly of mammalian cells. Type of experiment: cell-based.
Text: as §1

Another experiment concerns hypoacetylated chromatin. Kind of experiment: binding of lunasin to chromatin in cells. Type of experiment: cell-based.
Text: as §1

For the next experiment, the system named is cell membrane integrins. Kind of experiment: binding to cell membrane integrins in mammalian cell cultures. Type of experiment: cell-based. The note with it: exogenously applied; through the RGD tripeptide.
Text: as §1

On to `CC1=C(/C=C/C(C)=C/C=C/C(C)=C/C=C/C=C(C)/C=C/C=C(C)/C=C/C2=C(C)CCCC2(C)C)C(C)(C)CCC1` [b-carotene], for which the “effect on carcinogenesis after administration of the agent is stopped” value in experiment [1] was “reversible effect”.
Take lunasin: the “concentration of exogenously applied peptide (as low as) that inhibits transformation into tumorous foci” value in experiment [2] (carcinogens MCA and DMBA, range 10 nM to 10 mM) is 10 nM. Further, in experiment [2] (equimolar amounts), the “prevention of carcinogen-induced tumor formation compared with BBIC” value was “more effective than BBIC”. Further, the “inhibition of carcinogen-mediated transformation of fibroblast cells into tumorous foci” value in experiment [2] (exogenous application, carcinogens MCA and DMBA) is on record as “inhibits the transformation”. Also, the “internalization in the cell” value with mammalian cells [3] was “gets internalized in the cell via the RGD motif”. Besides, in the experiment on carcinogenesis, the “efficacy when substituted for BBI” value is on record as “provides efficacy”. The “effect on kinetochore assembly” value in the experiment with mammalian cells [4] (exogenously applied, internalized lunasin, cells undergo normal mitosis) is listed as “appears not to affect kinetochore assembly”. Also, the effect on mitosis result in the experiment with mammalian cells [4] (when expressed in mammalian cells) is recorded as “antimitotic effect”. The binding to chromatin result in the experiment with hypoacetylated chromatin (exogenously applied to mammalian cell cultures, lunasin that gets into the nucleus) is listed as “sufficient to effectively bind regions of hypoacetylated chromatin”; with hypoacetylated chromatin (lunasin gene transfected and expressed inside the cell), “preferentially binds to hypoacetylated chromatin”. In the experiment with cell membrane integrins, the “binding to cell membrane integrins” value was “binds to cell membrane integrins”.
On to vitamin E, for which the “effect on carcinogenesis after administration of the agent is stopped” value in experiment [1] is reported as “reversible effect”.
